{"source": "patent US20220133831A1", "about": "“Sarcopoterium Spinosum Extract for Treating Inflammation” (Ariel Scientific Innovations Ltd., priority 2019, published 2022)", "format_in_all_cases": "cell-based, mouse", "key": {"[1]": {"system": "RAW264.7 cells", "test": "Real time PCR, mRNA expression of pro and anti-inflammatory genes", "conditions": "LPS and/or SSE, 24 h", "method": "(§1) Total RNA was extracted from Raw264.7 cells using TRI reagent (Molecular Research Center, Inc. Cincinnati, Ohio) according to manufacturer instructions. RNA (4 μg) was reverse transcribed by oligo-dT priming (Stratascript 5.0 multi-temperature reverse transcriptase, Stratagene) according to manufacturer instructions. Real-time PCR amplification reactions were performed using SYBR Fast Universal Ready-mix Kit (Kappa Biosystems), using the MxPro QPCR instrument (Stratagene). Primers for real time PCR reactions were synthesized by Sigma, Israel."}, "[2]": {"system": "NFκB in RAW264.7 cells", "test": "NFκB activation (NFkB p65 Transcription Factor Assay Kit)", "conditions": "LPS 200 ng/ml, SSE 70 μg/ml", "method": "RAW264.7 cells were treated with LPS (200 ng/ml) or SSE (70 μg/ml) for 3 h. NFκB activation was measured using NFkB p65 Transcription Factor Assay Kit (Abcam, Cambridge, UK), according to manufacturer instructions. In this assay, nuclear proteins were extracted using extraction buffer supplied by Abcam. The samples were homogenized and centrifuged at 12,000 RPM for 1 min. The supernatant was collected and protein concentration was measured using the Bradford method. Nuclear protein extract (5 μg) was added to the wells, which were coated with DNA sequence containing the NFkB response element. The selective binding of the transcription factor to its DNA response element was measured according to manufacturer's instructions."}, "[3]": {"system": "RAW264.7 cells", "test": "Nitrite assay (Griess reagent), NO synthesis", "conditions": "LPS and/or SSE, 24 h", "method": "(§2) RAW264.7 cells (1×10^5 cells/ml) were cultured in 6-well plates. After 24 h incubating, NO synthesis was determined by assaying the culture supernatant for nitrite, using Griess reagent (Promega), according to manufacturer instructions."}, "[4]": {"system": "bone marrow-derived macrophages (BMDM)", "test": "Western blot analysis of MAPK phosphorylation in BMDM", "method": "(§3) In-vitro experiments were performed on RAW264.7 mouse macrophage cell line and on bone marrow-derived macrophages (BMDM). RAW264.7 cells were grown in high glucose DMEM containing 10% FBS, 2 mM 1-glutamine and 1% penicillin/streptomycin. For BMDM: C57bl/6J mice at age 10 weeks were purchased from Envigo, Israel. BMDMs were isolated from femur and tibia bones. Mice were sacrificed using a CO2 chamber. Mice legs were cut off, while fur, flesh and muscle tissue were removed in sterile environment followed by disconnection of the tibia from the femur. Bone marrow content was washed out using a complete RPMI and 23G syringe followed by filtration of the supernatant through a 21G syringe. The cells were centrifuged at 450×g for 10 min at room temperature and the pellet was resuspended in RPMI containing 10% FBS, 1% penicillin/streptomycin, HEPES buffer (120 Mm) and M-CSF (50 μg/ml). The media was replaced every 3 days. The experiment was performed on the 7th day of differentiation.\nRAW264.7 cells were treated with LPS (200 ng/ml) and/or SSE (70 μg/ml) for 24 hr. Protein were lysed using RIPA buffer supplemented with protease and phosphatase inhibitors. The samples were homogenized and centrifuged at 14,000 rpm for 15 min. The supernatant was collected and protein concentration was measured using the Bradford method. […]"}, "[5]": {"system": "bone marrow-derived macrophages (BMDM)", "test": "NO secretion of BMDM (Griess reagent)", "conditions": "24 hr", "method": "as §3, §2"}, "[6]": {"system": "RAW264.7 cells", "test": "Western blot analysis of MAPK, STAT and Akt phosphorylation", "method": "RAW264.7 cells were treated with LPS (200 ng/ml) and/or SSE (70 μg/ml) for 24 hr. Protein were lysed using RIPA buffer supplemented with protease and phosphatase inhibitors. The samples were homogenized and centrifuged at 14,000 rpm for 15 min. The supernatant was collected and protein concentration was measured using the Bradford method. Proteins (20 μg per lane) were separated by SDS-polyacrylamide gel electrophoresis and transferred onto nitrocellulose membranes. The membranes were blocked in 5% dry milk solution, incubated with the appropriate antibody solutions (5% BSA in 0.01% TBST) and proteins were immunodetected using the enhanced chemiluminescence method."}, "[7]": {"system": "RAW264.7 cells", "test": "Cell viability assay (XTT)", "conditions": "24 h", "method": "as §3\nRAW264.7 cells were seeded (5×10^4 cells/well) in 96-well plates, and incubated overnight followed by treatment with LPS (200 ng/ml) and/or SSE (70 μg/ml). Cell viability was determined by XTT assay (Biological Industries, Israel. Cat. No.: 20-300-1000) according to manufacturer instructions."}, "[8]": {"system": "RAW264.7 cells", "test": "Cell morphology, bright field micrographs", "conditions": "LPS or SSE, 24 h", "method": "FIGS. 3A-3B show increased viability and affected cell morphology in […] cells in response to SSE treatment. RAW264.7 cells were treated with lipopolysaccharide (LPS) or SSE for 24 h. A. Viability was measured by XTT assay. Results are presented as the Mean±SEM, *P<0.05, **P<0.005, ***P<0.001 by one-way Anova, followed by Bonferroni's post-test. B. Micrographs of cells were performed using bright field Olympus imaging system, ×20 magnification. Upper two: left—control; right—LPS; lower two: left—SSE; right—LPS+SSE.\nas §3, with “The cells were centrifuged at 450×g for 10 min at room temperature and the pellet was resuspended in RPMI containing 10% FBS, 1% penicillin/streptomycin, HEPES buffer (120 Mm) and M-CSF (50 μg/ml). The media was replaced every 3 days. The experiment was performed on the 7th day of differentiation.” left out"}, "[9]": {"system": "bone marrow-derived macrophages (BMDM)", "test": "Cell morphology of bone marrow-derived macrophages", "conditions": "LPS or SSE, 24 hr", "method": "FIGS. 6A-6D show an immunomodulatory effect of SSE on bone marrow-derived macrophages (BMDM). BMDM were isolated and cultured as described in the methods. Cells were treated with LPS and/or SSE for 24 hr. A. micrographs of cells were performed by bright field Olympus imaging system. Upper two: left—control; right—LPS; lower two: left—SSE; right—LPS+SSE. B. NO synthesis was measured by Griess reagent as described in the methods. C. mRNA was isolated and expression of selected genes was measured by RT-PCR as described in the methods. Results were normalized to the expression of the housekeeping gene RPS29, and are presented as the Mean±SEM. *P<0.05, **P<0.005, ***P<0.001 ****P<0.0001 compared to control, or as indicated in graphs, by one-way Anova, followed by Bonferroni's post-test. D. Western-blot analysis was performed as described in the methods. These are representative results of 3 independent experiments.\nIn-vitro experiments were performed on RAW264.7 mouse macrophage cell line and on bone marrow-derived macrophages (BMDM). RAW264.7 cells were grown in high glucose DMEM containing 10% FBS, 2 mM 1-glutamine and 1% penicillin/streptomycin. For BMDM: C57bl/6J mice at age 10 weeks were purchased from Envigo, Israel. BMDMs were isolated from femur and tibia bones. Mice were sacrificed using a CO2 chamber. […]"}, "[10]": {"system": "bone marrow-derived macrophages (BMDM)", "test": "mRNA expression in BMDM (RT-PCR)", "conditions": "24 hr", "method": "as §3, §1"}, "[11]": {"conditions": "LPS 200 ng/ml or SSE 70 μg/ml, 24 hr"}}}
{"substance": "lipopolysaccharide [LPS]", "values": [{"measurement": "mRNA expression of IL1β", "setting": "[1]", "result": "increased"}, {"measurement": "mRNA expression of IL-6", "setting": "[1]", "result": "increased"}, {"measurement": "mRNA expression of MCP-1", "setting": "[1]", "result": "increased"}, {"measurement": "mRNA expression of TNFα", "setting": "[1]", "result": "increased"}, {"measurement": "NFκB activation (binding of NFκB to its DNA response element)", "setting": "[2]", "result": "increased"}, {"measurement": "NO synthesis (nitrite in supernatant)", "setting": "[3]", "result": "increased"}, {"measurement": "Erk phosphorylation", "setting": "[4]", "result": "phosphorylated"}, {"measurement": "P38 phosphorylation", "setting": "[4]", "result": "increased"}, {"measurement": "NO secretion (basal)", "setting": "[5]", "result": "significantly increased"}, {"measurement": "Akt phosphorylation", "setting": "[6]", "result": "induced"}, {"measurement": "STAT1 phosphorylation", "setting": "[6]", "result": "not affected"}, {"measurement": "STAT3 phosphorylation on S727 residue", "setting": "[6]", "result": "induced to be phosphorylated"}, {"measurement": "ERK1/2 phosphorylation", "setting": "[6]; [11]", "result": "phosphorylated"}, {"measurement": "JNK phosphorylation", "setting": "[6]; [11]", "result": "phosphorylated"}, {"measurement": "p38 phosphorylation", "setting": "[6]; [11]", "result": "phosphorylated"}, {"measurement": "STATS phosphorylation", "setting": "[6]; data not shown", "result": "not detected at all"}, {"measurement": "proliferation rate (viability by XTT)", "setting": "[7]", "result": "stimulatory effect"}, {"measurement": "morphology of cells", "setting": "[8]", "result": "flattened, increased in size and acquired a distinct dendritic morphology"}, {"measurement": "morphology of BMDM", "setting": "[9]", "result": "enlargement of the cells, with a minor vacuolization"}, {"measurement": "mRNA expression of Arg1", "setting": "[10]", "result": "also increased"}, {"measurement": "mRNA expression of IL1β", "setting": "[10]", "result": "stimulated"}, {"measurement": "mRNA expression of IL-6", "setting": "[10]", "result": "stimulated"}, {"measurement": "mRNA expression of IL-10", "setting": "[10]", "result": "also increased"}, {"measurement": "mRNA expression of MCP-1", "setting": "[10]", "result": "stimulated"}, {"measurement": "mRNA expression of TNFα", "setting": "[10]", "result": "stimulated"}]}
